In article PMC6941952, “A homogeneous bioluminescent immunoassay to probe cellular signaling pathway regulation” (Communications Biology, 2020):
Several values for one entry are separate records, joined by “and”; a condition that tells them apart may be missing. Identical values can stand only once.

Test system: total IκBα
Test: NanoBiT cell-based immunoassay, total IκBα in MCF-7 cells
Set-up: species or system human
Details: for Total IkB Average / Average / IkB Average: background subtracted; for Raw data / Subtract background / Average: Figure 2d; for Average IKB (background subtracted) / Raw data IKB / Subtract reagent background IKB: 30 min, MCF-7, Fig 7a; for IkB Average / IKB Raw data / IKB Subtract reagent background: without CHX
Method: Prior to NanoBiT Cell-Based Immunoassay, 50,000 cells were seeded in 160 µl of complete growth media per well of a 96-well plate and incubated overnight. […] If necessary, the cell culture media were replaced with serum-free media after the cells were stably adherent on the plate and incubated overnight. To treat cells with activators or inhibitors, medium was changed to 30 µl of medium containing inhibitors. If activation of a specific pathway is needed, the cells were stimulated with 10 µl of medium containing activators. To lyse the cells, 10 µl of lysis buffer containing 0.1% digitonin diluted in 1X immunoassay buffer with protease and phosphatase inhibitors was added and the plates were mixed vigorously for 20 min. Then, 50 µl of an antibody mix containing two primary antibodies against the target protein and NanoBiT detecting antibodies (0.3 µl each per well), diluted in 1X immunoassay buffer was added to the lysates. The plates were incubated at 23 °C for 90 min, followed by the addition of 25 µl of Nano-Glo® reagent consisting of Nano-Glo® Luciferase Assay Substrate mixed with 1X immunoassay buffer. Luminescence was measured using a plate-reading luminometer.
Single dose or dose response inhibitor treatments were performed prior to activation of the pathways as follows. For IκBα, the cells were treated in 30 µl medium with IKK16 or MG132 for 60 min before the addition of 10 µl of DMEM containing appropriate concentration of TNFα. To measure phosphorylation of AKT or STAT3, the corresponding NanoBiT immunoassays were developed with MCF-7 or A431 cells, respectively, according the same scheme used to develop the IκBα assay using the primary antibodies for AKT and STAT3 described in the reagents section. […] Treatment with LY294002 was performed in 30 µl medium and cells were incubated for 60 min before the addition of 1 µM Insulin. To measure STAT3 phosphorylation, A431 cells were incubated overnight in DMEM medium without serum. […] After addition of the stimulators, the cells were incubated for additional times as follows. IκBα phosphorylation and degradation analyses required both time courses and single time points as described in figures. […] The NanoBiT immunoassay protocol was followed as described above.
All 96-well assay plates were read using a GloMax® 96 Microplate Luminometer from Promega. The instrument was set to 0.5 s integration time. In order to obtain net change of signal, the reagent background values (signal from the well containing all reagent except primary antibodies) were subtracted from the sample values. To plot and analyze the data, Microsoft Excel and GraphPad Prism® Software were used. IC50 values were determined by using a nonlinear regression fit to a sigmoidal dose response (variable slope).

[1] = Figure 3a and 3b, listed as TNF
[2] = No MG132, TNF 2 min, listed as TNF
[3] = No MG132, TNF 4 min, listed as TNF
[4] = No MG132, TNF 6 min, listed as TNF
[5] = No MG132, TNF 8 min, listed as TNF
[6] = No MG132, TNF 10 min, listed as TNF
[7] = No MG132, TNF 12 min, listed as TNF
[8] = No MG132, TNF 15 min, listed as TNF
[9] = No MG132, TNF 30 min, listed as TNF
[10] = TNF 0.00038147 ng/ml, listed as TNF
[11] = TNF 0.00152588 ng/ml, listed as TNF
[12] = TNF 0.00610352 ng/ml, listed as TNF
[13] = TNF 0.0244141 ng/ml, listed as TNF
[14] = TNF 0.0976562 ng/ml, listed as TNF
[15] = TNF 0.390625 ng/ml, listed as TNF
[16] = TNF 1.5625 ng/ml, listed as TNF

TNFα
Total IkB Average (Figure 3a and 3b): 42170
Total IkB Raw data [1]: 63440 and 64850 and 64790
Total IkB Subtract reagent background [1]: 42600 and 41250 and 42660
Raw data (Cell # 3500, listed as TNF): 18670 and 18820
Subtract background (Cell # 3500, listed as TNF): 4540 and 4140
Raw data (Cell # 7000, listed as TNF): 18660 and 18670
Subtract background (Cell # 7000, listed as TNF): 4530 and 3990
Raw data (Cell # 14000, listed as TNF): 18430 and 19060
Subtract background (Cell # 14000, listed as TNF): 4300 and 4380
Raw data (Cell # 21000): 19110
Subtract background (Cell # 21000, listed as TNF): 4980 and 4430
Raw data (Cell # 28000, listed as TNF): 20250 and 19900
Subtract background (Cell # 28000, listed as TNF): 6120 and 5220
Raw data (Cell # 35000, listed as TNF): 20910 and 20760
Subtract background (Cell # 35000, listed as TNF): 6780 and 6080
Raw data (Cell # 42000, listed as TNF): 21720 and 21040
Subtract background (Cell # 42000, listed as TNF): 7590 and 6360
Raw data (Cell # 49000, listed as TNF): 22850 and 23430
Subtract background (Cell # 49000, listed as TNF): 8720 and 8750
Raw data (Cell # 56000, listed as TNF): 23160 and 23600
Subtract background (Cell # 56000, listed as TNF): 9030 and 8920
Raw data (Cell # 63000, listed as TNF): 26970 and 26330
Subtract background (Cell # 63000, listed as TNF): 12840 and 11650
Average (Cell # 3500): 4340
Average (Cell # 7000): 4260
Average (Cell # 14000): 4340
Average (Cell # 21000): 4705
Average (Cell # 28000): 5670
Average (Cell # 35000): 6430
Average (Cell # 42000): 6975
Average (Cell # 49000): 8735
Average (Cell # 56000): 8975
Average (Cell # 63000): 12245
Total IkB Average (No MG132, TNF 2 min): 63885
Total IkB Raw data [2]: 78720 and 79300 and 81370 and 83380
Total IkB Subtract reagent background [2]: 61913 and 62493 and 64563 and 66573
Total IkB Average (No MG132, TNF 4 min): 62935
Total IkB Raw data [3]: 77560 and 79450 and 81310 and 80650
Total IkB Subtract reagent background [3]: 60753 and 62643 and 64503 and 63843
Total IkB Average (No MG132, TNF 6 min): 62480
Total IkB Raw data [4]: 79920 and 79580 and 79430 and 78220
Total IkB Subtract reagent background [4]: 63113 and 62773 and 62623 and 61413
Total IkB Average (No MG132, TNF 8 min): 58228
Total IkB Raw data [5]: 76120 and 76190 and 73510 and 74320
Total IkB Subtract reagent background [5]: 59313 and 59383 and 56703 and 57513
Total IkB Average (No MG132, TNF 10 min): 52595
Total IkB Raw data [6]: 72590 and 72810 and 65780 and 66430
Total IkB Subtract reagent background [6]: 55783 and 56003 and 48973 and 49623
Total IkB Average (No MG132, TNF 12 min): 41533
Total IkB Raw data [7]: 62400 and 61420 and 53610 and 55930
Total IkB Subtract reagent background [7]: 45593 and 44613 and 36803 and 39123
Total IkB Average (No MG132, TNF 15 min): 29070
Total IkB Raw data [8]: 51070 and 48840 and 41650 and 41950
Total IkB Subtract reagent background [8]: 34263 and 32033 and 24843 and 25143
Total IkB Average (No MG132, TNF 30 min): 9615
Total IkB Raw data [9]: 28150 and 26460 and 25400 and 25680
Total IkB Subtract reagent background [9]: 11343 and 9653 and 8593 and 8873
Average IKB (background subtracted) (TNF 0.00038147 ng/ml): 68883
Raw data IKB [10]: 80810 and 81860 and 75990
Subtract reagent background IKB [10]: 70140 and 71190 and 65320
Average IKB (background subtracted) (TNF 0.00152588 ng/ml): 65947
Raw data IKB [11]: 78690 and 78640 and 72520
Subtract reagent background IKB [11]: 68020 and 67970 and 61850
Average IKB (background subtracted) (TNF 0.00610352 ng/ml): 63850
Raw data IKB [12]: 76470 and 76630 and 70460
Subtract reagent background IKB [12]: 65800 and 65960 and 59790
Average IKB (background subtracted) (TNF 0.0244141 ng/ml): 59300
Raw data IKB [13]: 73310 and 70780 and 65820
Subtract reagent background IKB [13]: 62640 and 60110 and 55150
Average IKB (background subtracted) (TNF 0.0976562 ng/ml): 52567
Raw data IKB [14]: 65850 and 63760 and 60100
Subtract reagent background IKB [14]: 55180 and 53090 and 49430
Average IKB (background subtracted) (TNF 0.390625 ng/ml): 37353
Raw data IKB [15]: 46770 and 47240 and 50060
Subtract reagent background IKB [15]: 36100 and 36570 and 39390
Average IKB (background subtracted) (TNF 1.5625 ng/ml): 21387
Raw data IKB [16]: 30440 and 30700 and 35030
Subtract reagent background IKB [16]: 19770 and 20030 and 24360
Average IKB (background subtracted) (TNF 6.25 ng/ml): 12817
Raw data IKB (TNF 6.25 ng/ml, listed as TNF): 23480 and 22250 and 24730
Subtract reagent background IKB (TNF 6.25 ng/ml, listed as TNF): 12810 and 11580 and 14060
Average IKB (background subtracted) (TNF 25 ng/ml): 10187
Raw data IKB (TNF 25 ng/ml, listed as TNF): 20190 and 20330 and 22050
Subtract reagent background IKB (TNF 25 ng/ml, listed as TNF): 9520 and 9660 and 11380
Average IKB (background subtracted) (TNF 100 ng/ml): 9587
Raw data IKB (TNF 100 ng/ml, listed as TNF): 19860 and 20090 and 20820
Subtract reagent background IKB (TNF 100 ng/ml, listed as TNF): 9190 and 9420 and 10150
IkB Average (TNF 5 min): 50908
IKB Raw data (TNF 5 min, listed as TNF): 65320 and 61760 and 61990 and 62780
IKB Subtract reagent background (TNF 5 min, listed as TNF): 53265 and 49705 and 49935 and 50725
IkB Average (TNF 10 min): 31425
IKB Raw data (TNF 10 min, listed as TNF): 42500 and 40590 and 43600 and 47230
IKB Subtract reagent background (TNF 10 min, listed as TNF): 30445 and 28535 and 31545 and 35175
IkB Average (TNF 20 min): 10930
IKB Raw data (TNF 20 min, listed as TNF): 21120 and 20330 and 22530 and 27960
IKB Subtract reagent background (TNF 20 min, listed as TNF): 9065 and 8275 and 10475 and 15905
IkB Average (TNF 30 min): 8948
IKB Raw data (TNF 30 min, listed as TNF): 19500 and 19660 and 20770 and 24080
IKB Subtract reagent background (TNF 30 min, listed as TNF): 7445 and 7605 and 8715 and 12025
IkB Average (TNF 40 min): 12565
IKB Raw data (TNF 40 min, listed as TNF): 24080 and 23090 and 23770 and 27540
IKB Subtract reagent background (TNF 40 min, listed as TNF): 12025 and 11035 and 11715 and 15485
IkB Average (TNF 60 min): 23095
IKB Raw data (TNF 60 min, listed as TNF): 35230 and 33190 and 36060 and 36120
IKB Subtract reagent background (TNF 60 min, listed as TNF): 23175 and 21135 and 24005 and 24065
IkB Average (TNF 80 min): 35000
IKB Raw data (TNF 80 min, listed as TNF): 46920 and 46230 and 46940 and 48130
IKB Subtract reagent background (TNF 80 min, listed as TNF): 34865 and 34175 and 34885 and 36075
IkB Average (TNF 100 min): 40533
IKB Raw data (TNF 100 min, listed as TNF): 53930 and 50010 and 52000 and 54410
IKB Subtract reagent background (TNF 100 min, listed as TNF): 41875 and 37955 and 39945 and 42355
IkB Average (TNF 120 min): 41718
IKB Raw data (TNF 120 min, listed as TNF): 56260 and 53820 and 52280 and 52730
IKB Subtract reagent background (TNF 120 min, listed as TNF): 44205 and 41765 and 40225 and 40675
